Like-named read-outs stand apart in the source and are kept apart here.

This experiment concerns the target T1, 5-lipoxygenase (Homo sapiens, UniProt P09917).
T1 construct: Human polymorphonuclear leukocytes (neutrophils) were obtained from normal healthy volunteers; endogenous in cells; host or cells: human blood neutrophils from healthy volunteers
T1 sequence (P09917 1-674): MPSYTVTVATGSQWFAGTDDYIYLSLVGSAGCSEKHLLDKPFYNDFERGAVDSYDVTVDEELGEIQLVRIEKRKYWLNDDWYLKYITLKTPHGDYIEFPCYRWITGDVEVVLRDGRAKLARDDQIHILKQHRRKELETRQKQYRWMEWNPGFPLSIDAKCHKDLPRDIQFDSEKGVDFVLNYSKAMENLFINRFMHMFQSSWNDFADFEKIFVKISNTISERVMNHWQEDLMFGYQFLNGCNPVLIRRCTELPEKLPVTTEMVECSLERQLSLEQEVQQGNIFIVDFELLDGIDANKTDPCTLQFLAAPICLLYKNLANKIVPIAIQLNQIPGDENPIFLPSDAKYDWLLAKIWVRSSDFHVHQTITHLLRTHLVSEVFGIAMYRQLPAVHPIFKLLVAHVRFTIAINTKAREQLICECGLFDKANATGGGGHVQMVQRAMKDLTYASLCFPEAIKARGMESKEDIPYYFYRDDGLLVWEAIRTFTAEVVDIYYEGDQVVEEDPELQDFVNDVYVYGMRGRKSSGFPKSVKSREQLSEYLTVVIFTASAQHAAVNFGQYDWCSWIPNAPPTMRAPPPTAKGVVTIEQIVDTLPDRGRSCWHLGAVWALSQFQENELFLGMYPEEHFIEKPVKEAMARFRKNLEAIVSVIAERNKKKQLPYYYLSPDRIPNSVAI
Description: 5-Lipoxygenase assay with human neutrophils. The class given is cell-based. The settings on record: 5 min, Human PMN; for inhibition at 15 µM: dose 15 μm (μM). As to the method:
Human polymorphonuclear leukocytes (neutrophils) were obtained from normal healthy volunteers by venipuncture and collected with heparin anticoagulant. Neutrophils were isolated by Dextran/Ficol sedimentation as described (Billah et al., J. Biol. Chem. 260, 6899-6906 (1985)). In brief, 30 ml of blood was mixed with 5 ml of dextran (Sigma) solution and kept at 37° C. for 30 min. The upper white cell-rich layer was removed and 10 ml was layered on 9 ml of Ficol-Paque solution (Pharmacia) and centrifuged at 280 xg for 10 min. at 5° C. The supernatant was removed and the neutrophil pellet was resuspended in HEPES buffer containing 25 mM N-2-hydroxyethylpiperazine-N^1 -2-ethanesulfonic acid HEPES, 125 mM NaCl, 2.5 mM KCl, 0.7 mM MgCl2, […] 10 mM glucose at pH 7.4. The red cells in the suspension were lysed by hypotonic shock. The neutrophils were washed by centrifugation in HEPES buffer two times and finally resuspended at a concentration of 20×10^6 cells/ml in the presence of 1 mM CaCl2.
Neutrophils (0.2 ml of suspension) were preincubated with dimethylsulfoxide (DMSO) vehicle with or without test compound (1 ul) for 4 minutes then incubated for 5 minutes with [^14 C] arachidonic acid (Amersham, 59 Ci/mole) at a 9 uM final concentration, and the calcium ionophore A23187 (Calbiochem) at a 1 uM final concentration. These stimulants were added in 10 ul of water:ethanol (9:1). The reaction was stopped by addition of methanol (0.4 ml), and cellular debris was removed by centrifugation. Aliquots (100 ul) of the incubations were run on a Waters two pump HPLC system fitted with a DuPont Zorbax ODS, 5u, […] Reliance Cartridge column and C18 "Guard Pak". The column was initially eluted at 2 ml/min with 80% of the mixture water:methanol:acetic acid (46:54:0.08) containing 1 mM EDTA adjusted to pH 6.0 with ammonium hydroxide (Pump A) and 20% methanol (Pump B). At 10 minutes, a linear gradient to reach 100% methanol (Pump B) at 27 minutes was established. Between 27 and 28 minutes, methanol was exchanged for the initial eluting solvent and by 35 minutes the column had been reequilibrated for the next sample. The effluent was analyzed by a continuous flow radioactivity monitor (model ROMONA-D) interfaced with a Hewlett Packard Lab Automation System for quantitation of radioactive products. These were predominantly leukotriene B4 (LTB4) which eluted at 7 minutes, and 5-hydroxyeicosatetraenoic acid (5-HETE) which eluted at 20 minutes.

`C=CCC1C(=O)c2c(OC)cc(OC)cc2C(C)(C)C1c1ccc(OC)c(OC)c1` (stereo not shown): the inhibition at 15 µM (read-out: % Inhibition LTB) was 0%.

Regarding `CC1(C)C(c2cc(O)cc(O)c2)=CC(=O)c2c(O)cc(O)cc21`, for the setting “read-out: % Inhibition 5-HETE”, the inhibition at 15 µM is 11%.

`COc1cc(OC)c2c(c1)C(C)(C)C(c1ccc(OC)c(OC)c1)C(C)C(=O)O2` (stereo not shown) [drawing 106 [X=O; R3/R4=O; J=CH3; L,P=OCH3], 4-(3,4-dimethoxyphenyl)-4,5-dihydro-7,9-dimethoxy-3,5,5-trimethyl-1-benzoxepin-2(3H)-one]: the inhibition at 15 µM (read-out: % Inhibition 5-HETE) was 20% and the inhibition at 15 µM (read-out: % Inhibition LTB) worked out at 2%.

Regarding `COc1cc(O)c2c(c1)C(C)(C)C(c1cc(O)cc(O)c1)CC2=O` (stereo not shown), for the setting “read-out: % Inhibition 5-HETE”, the inhibition at 15 µM worked out at 75%.

As for `COc1ccc2c(c1)C(C)(C)C(c1ccc(OC)c(OC)c1)=CC2=O`, the inhibition at 15 µM (read-out: % Inhibition 5-HETE) turned out to be 79%.

For `COc1ccc(CC2CC(C)(C)c3cc(OC)cc(OC)c3C2=O)cc1` (stereo not shown) [drawing 102 [A=drawing 103; B=H]], under “read-out: % Inhibition 5-HETE”, the inhibition at 15 µM was determined as 86%.

As for `COc1cc(OC)c2c(c1)C(C)(C)C(c1ccc(OC)c(OC)c1)CC2=NNC(=O)c1ccccc1` (stereo not shown), the inhibition at 15 µM came to 22% (read-out: % Inhibition 5-HETE) and 38% (read-out: % Inhibition LTB).

As to `COc1cc(O)c2c(c1)C(C)(C)C(c1ccc(OC)c(OC)c1)CC2=O` (stereo not shown), where the note is “read-out: % Inhibition 5-HETE”, the inhibition at 15 µM worked out at 0%.

`COc1ccc(C2CC(=O)c3c(OC)cccc3C2(C)C)cc1OC` (stereo not shown): for the setting “read-out: % Inhibition 5-HETE”, the inhibition at 15 µM came to 23%.

With `COc1cc(OC)cc(C2=CC(=O)c3c(cc(OC)c(OC)c3OC)C2(C)C)c1` [drawing 101 [R3/R4=O; E,G,P,L,K=OCH3; db yes]], the inhibition at 15 µM came out at 7% (read-out: % Inhibition 5-HETE) and 1% (read-out: % Inhibition LTB).

With `COc1cc(OC)c2c(c1)C(C)(C)C(c1ccc(OC)c(OC)c1)CC2=NOC(=O)C(C)(C)C` (stereo not shown), the inhibition at 15 µM (read-out: % Inhibition 5-HETE) turned out to be 0%.

Turning to `COc1cc(OC)c2c(c1)C(C)(C)C(c1ccc(OC)c(OC)c1)CC2Sc1ccc(Cl)cc1` (stereo not shown), under “read-out: % Inhibition 5-HETE”, the inhibition at 15 µM turned out to be 36%.

In the case of `COc1cc(OC)c2c(c1)C(C)(C)C(c1ccc(OC)c(OC)c1)CCO2` (stereo not shown) [drawing 106 [X=O; R3/R4=H,H; J=H; L,P=OCH3]], the inhibition at 15 µM reads like this: (read-out: % Inhibition 5-HETE) 39%; (read-out: % Inhibition LTB) 28%.

On to `COc1cc(OC)c2c(c1)C(C)(C)C(c1ccc(OC)c(OC)c1)CC2=NOC(C)=O` (stereo not shown), for which the inhibition at 15 µM by setting is: (read-out: % Inhibition 5-HETE) 13%; (read-out: % Inhibition LTB) 18%.

In the case of `CC1=C(c2ccc(O)c(O)c2)C(C)(C)c2cc(O)cc(O)c2C1=O`, for the setting “read-out: % Inhibition 5-HETE”, the inhibition at 5 µM is 13% and the inhibition at 15 µM is 90%. Moreover, under “read-out: % Inhibition LTB”, the inhibition at 5 µM stood at 46% and the inhibition at 15 µM was determined as 96%.

With `COc1ccc(C2=CC(=O)c3c(OC)cccc3C2(C)C)cc1OC`, the inhibition at 15 µM (read-out: % Inhibition 5-HETE) came to 28%.

With `CC1(C)c2cc(O)cc(O)c2C(=NO)CC1c1cc(O)cc(O)c1` (stereo not shown), under “read-out: % Inhibition 5-HETE”, the inhibition at 15 µM is 57%.

Regarding `COc1cc(OC)c2c(c1)C(C)(C)C(c1ccc(OC)c(OC)c1)CC2=NNC(C)=O` (stereo not shown), the inhibition at 15 µM reads like this: (read-out: % Inhibition 5-HETE) 0%; (read-out: % Inhibition LTB) 0%.

`CC1(C)c2cc(O)cc(O)c2C(=O)CCC1c1ccc(O)c(O)c1` (stereo not shown) [drawing 107 [X=O; db no; W,J,F=H; E,G,L,P=OH]]: the inhibition at 15 µM (read-out: % Inhibition 5-HETE) came to 88%.

For `CCOC(=O)C1C(=O)c2c(OC)cc(OC)cc2C(C)(C)C1c1ccc(OC)c(OC)c1` (stereo not shown), the inhibition at 15 µM (read-out: % Inhibition 5-HETE) is 69% and the inhibition at 15 µM (read-out: % Inhibition LTB) amounted to 89%.

As for `CC1(C)c2cc(O)cc(O)c2C(=O)CC1c1cccc(O)c1` (stereo not shown), the inhibition at 15 µM (read-out: % Inhibition 5-HETE) was found to be 23%.

Consider `COc1cc(OC)c2c(c1)C(C)(C)C(c1ccc(OC)c(OC)c1)CC2=NN` (stereo not shown), for which the inhibition at 15 µM (read-out: % Inhibition 5-HETE) was found to be 35%.

Turning to `COc1cc(OC)c2c(c1)C(C)(C)CC(c1ccccc1)C2=O` (stereo not shown) [drawing 102 [A=C6H5; B=H]], where the note is “read-out: % Inhibition 5-HETE”, the inhibition at 15 µM amounted to 64%.

On to `COc1ccc(C2CC(=O)Cc3c(OC)cccc3C2(C)C)cc1OC` (stereo not shown) [8-(3,4-dimethoxyphenyl)-9,9-dimethyl-4-methoxy-5,7,8,9-tetrahydro-6H-benzocyclohepten-6-one], for which the inhibition at 15 µM by setting is: (read-out: % Inhibition 5-HETE) 61%; (read-out: % Inhibition LTB) 22%.

On to `COc1cc(OC)c2c(c1)C(C)(C)C(c1ccc(OC)c(OC)c1)CC2=NNC(=O)c1ccccc1O` (stereo not shown), for which the inhibition at 15 µM amounted to 41% (read-out: % Inhibition 5-HETE) and 50% (read-out: % Inhibition LTB).
